Data set [1] is described as follows: Storage stability of EC20 drug substance and EC20 kits. It is filed as physicochemical. The following applies: −20° C. in amber glass bottles with butyl rubber stoppers. How it is done:
EC20 kits were used for preparation of the ^99mTc-EC20 radioactive drug substance. Each kit contained a sterile, non-pyrogenic lyophilized mixture of 0.1 mg EC20, 80 mg sodium α-D-glucoheptonate, […] dihydrate, and sufficient sodium hydroxide or hydrochloric acid to adjust the pH to 6.8±0.2 prior to lyophilization. The lyophilized powder was sealed in a 5 mL vial under an argon atmosphere. The kits were then stored frozen at −20° C. until use or expiration (current shelf life is >2 years). The tin (II) chloride component is present to reduce the added ^99mTc-pertechnetate, while the sodium α-D-glucoheptonate component is present to stabilize the reduced ^99mTc prior to its final chelation to the EC20 compound.
EC20 Drug Substance is stored at −20° C. in amber glass bottles with butyl rubber stoppers.

The test system of data set [2] is folate receptors. The experiment in a line: EC20 scan of ovarian cancer patients at the interim analysis of Example 25. It is filed as in vivo, human. The following applies: at the time of the interim analysis of Example 25. From the text: Folate-receptor status in the patient is positive if one or more tumors in the patient have folate receptors capable of binding EC20 or if all tumors in the patient are capable of binding EC20. In one illustrative example, the folate-radioactive imaging agent conjugate is ^99mTc-EC20. At the time of the interim analysis described in Example 25, below, 91.3% of all ovarian cancer patients scanned with EC20 had been “positive” (indicated by having at least one tumor lesion/area that binds EC20) versus 8.7% of patients that were fully EC20 “negative”.
In this visual assessment embodiment (visual detection), lesions are evaluated visually to determine if the patient has a threshold level of functionally active folate receptors indicative of a clinical benefit to the patient. In one aspect, lesions (i.e., tumors) for analysis in each patient are selected by a radiologist according to RECIST (v1.0) criteria. Subsequently, a nuclear medicine physician (i.e. reader) assesses the uptake of the EC20 for each evaluable target lesion visually, and classifies the uptake as “EC20 positive” (marked uptake/mild uptake) or “EC20 negative” (no uptake). In one illustrative example the folate-radioactive imaging agent conjugate is ^99mTc-EC20.

Data set [3] concerns folate receptors. The experiment in a line: 99mTc-EC20 SPECT uptake in target lesions (EC-FV-02). The data set is classed as in vivo, human. How it is done: EC20 Patient Scanning Procedure. Following completion of screening procedures and confirmation of eligibility, all subjects received one intravenous injection of 0.5 mg of folic acid followed within 1-3 minutes by a 1-2 mL injection of 0.1 mg of EC20 labeled with 20-25 mCi of technetium-99m. Patients then underwent SPECT imaging (mid-thigh to head, posterior and anterior images) 1-2 hours following injection of EC20. Target lesions were selected by the radiologist according to RECIST (v1.0) criteria. Subsequently, nuclear medicine physicians assessed EC20 uptake for each target lesion visually, and classified the uptake as “positive” (marked/mild uptake) or “negative” (no uptake).
EC20 Lesion Scoring Procedure.
Forty-five protocol-eligible subjects with a total of 216 RECIST-defined target tumors (ie, “lesions”) were included in this retrospective analysis (table below). One-hundred and forty-five (145/216; 67%) of the lesions were considered EC20 “evaluable.” Of these, 111 (77%) had EC20 “positive” uptake.

The mark [4] stands for this setting: of 145 evaluable lesions, visual SPECT assessment, 45 subjects.

Results on 2 compounds are retold here after US20140140925A1, “FOLATE-TARGETED DIAGNOSTICS AND TREATMENT” (priority 2009, published 2014).

With `Nc1nc2ncc(CNc3ccc(C(=O)N[C@H](CCC(=O)NC[C@H](N)C(=O)N[C@@H](CC(=O)O)C(=O)N[C@@H](CS)C(=O)O)C(=O)O)cc3)nc2c(=O)[nH]1` [EC20 Drug Substance, pteroyl-γ-D-glutamyl-β-L-2,3-diaminopropionyl-L-aspartyl-L-cysteine], in data set [1], the “time stable on storage” value was “more than 24 months”.
Regarding `Nc1nc2ncc(CNc3ccc(C(=O)N[C@H](CCC(=O)NC[C@@H]4[NH][99Tc]56(=[O])[S]C[C@@H](C(=O)O)[N]5C(=O)[C@H](CC(=O)O)[N]6C4=O)C(=O)O)cc3)nc2c(=O)[nH]1` [EC20], in the data set with folate receptors [2], the “ovarian cancer patients scanned "positive" (at least one tumor lesion/area that binds EC20)” value worked out at 91.3% and the “patients fully EC20 "negative"” value stood at 8.7%. Besides, in the data set with folate receptors [3] (45 subjects, EC-FV-02), the “subjects with EC20 uptake observed visually in at least 1 target lesion” value was “Eighty-seven percent”. In the data set with folate receptors [3] (setting [4]), the “Negative (EC20−(neg)) lesions” value is listed as 34 (23%) N (%) and the “Positive (EC20+) lesions” value was 111 (77%) N (%). Further, the “uptake in liver, spleen, bladder, and kidney” value in the data set with folate receptors [3] (organs whose target lesions were considered non-evaluable) was “inherently high uptake”.
